Measurements published in the supplement of paper PMC10307832.

What was measured:
Test in all cases: relative viability (nuclei count vs DMSO), 5 days (fraction); higher = more cells survive
LCLC-103H = system: LCLC-103H
Outline: (§1)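 Five library-drug doses in √10 steps were combined with a fixed anchor-drug dose, or a single drug was given alone, by pin tool to lung cancer cell lines in 1536-well plates the day after seeding. Nuclei were stained and counted after 5 days. Relative viability is the nuclei count in treated wells over that in vehicle wells, taken as the median of duplicate plates.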

LXF-289 = system: LXF-289
Outline: as §1

NCI-H1355 = system: NCI-H1355
Outline: as §1

NCI-H1651 = system: NCI-H1651
Outline: as §1

NCI-H1755 = system: NCI-H1755
Outline: as §1

NCI-H1792 = system: NCI-H1792
Outline: as §1

NCI-H1915 = system: NCI-H1915
Outline: as §1

NCI-H2347 = system: NCI-H2347
Outline: as §1

NCI-H3122 = system: NCI-H3122
Outline: as §1

NCI-H322M = system: NCI-H322M
Outline: as §1

NCI-H441 = system: NCI-H441
Outline: as §1

NCI-H460 = system: NCI-H460
Outline: as §1

NCI-H520 = system: NCI-H520
Outline: as §1

NCI-H522 = system: NCI-H522
Outline: as §1

NCI-H596 = system: NCI-H596
Outline: as §1

NCI-H661 = system: NCI-H661
Outline: as §1

NCI-H727 = system: NCI-H727
Outline: as §1

PC-14 = system: PC-14
Outline: as §1

RERF-LC-KJ = system: RERF-LC-KJ
Outline: as §1

SK-MES-1 = system: SK-MES-1
Outline: as §1

SW 900 = system: SW 900
Outline: as §1

## O=c1cc(N2CCOCC2)oc2c(-c3cccc4c3sc3ccccc34)cccc12 + Nc1ncn([C@H]2C[C@H](O)[C@@H](CO)O2)c(=O)n1 [Decitabine] (partner 2 µM)
LCLC-103H; first compound 0.01 µM
  relative viability: 0.807
LCLC-103H; first compound 0.03162 µM
  relative viability: 0.763
LCLC-103H; first compound 0.1 µM
  relative viability: 0.766
LCLC-103H; first compound 0.3162 µM
  relative viability: 0.77
LCLC-103H; first compound 1 µM
  relative viability: 0.686
LXF-289; first compound 0.01 µM
  relative viability: 0.457
LXF-289; first compound 0.03162 µM
  relative viability: 0.386
LXF-289; first compound 0.1 µM
  relative viability: 0.391
LXF-289; first compound 0.3162 µM
  relative viability: 0.371
LXF-289; first compound 1 µM
  relative viability: 0.392
NCI-H1355; first compound 0.01 µM
  relative viability: 0.377
NCI-H1355; first compound 0.03162 µM
  relative viability: 0.339
NCI-H1355; first compound 0.1 µM
  relative viability: 0.409
NCI-H1355; first compound 0.3162 µM
  relative viability: 0.351
NCI-H1355; first compound 1 µM
  relative viability: 0.352
NCI-H1651; first compound 0.01 µM
  relative viability: 0.563
NCI-H1651; first compound 0.03162 µM
  relative viability: 0.615
NCI-H1651; first compound 0.1 µM
  relative viability: 0.593
NCI-H1651; first compound 0.3162 µM
  relative viability: 0.642
NCI-H1651; first compound 1 µM
  relative viability: 0.61
NCI-H1755; first compound 0.01 µM
  relative viability: 0.755
NCI-H1755; first compound 0.03162 µM
  relative viability: 0.74
NCI-H1755; first compound 0.1 µM
  relative viability: 0.711
NCI-H1755; first compound 0.3162 µM
  relative viability: 0.696
NCI-H1755; first compound 1 µM
  relative viability: 0.719
NCI-H1792; first compound 0.01 µM
  relative viability: 0.581
NCI-H1792; first compound 0.03162 µM
  relative viability: 0.531
NCI-H1792; first compound 0.3162 µM
  relative viability: 0.556
NCI-H1792; first compound 1 µM
  relative viability: 0.561
NCI-H1915; first compound 0.01 µM
  relative viability: 0.28
NCI-H1915; first compound 0.03162 µM
  relative viability: 0.253
NCI-H1915; first compound 0.1 µM
  relative viability: 0.256
NCI-H1915; first compound 0.3162 µM
  relative viability: 0.291
NCI-H1915; first compound 1 µM
  relative viability: 0.266
NCI-H2347; first compound 0.01 µM
  relative viability: 0.606
NCI-H2347; first compound 0.03162 µM
  relative viability: 0.632
NCI-H2347; first compound 0.1 µM
  relative viability: 0.609
NCI-H2347; first compound 0.3162 µM
  relative viability: 0.641
NCI-H2347; first compound 1 µM
  relative viability: 0.603
NCI-H3122; first compound 0.01 µM
  relative viability: 0.405
NCI-H3122; first compound 0.03162 µM
  relative viability: 0.436
NCI-H3122; first compound 0.1 µM
  relative viability: 0.564
NCI-H3122; first compound 0.3162 µM
  relative viability: 0.452
NCI-H3122; first compound 1 µM
  relative viability: 0.388
NCI-H322M; first compound 0.01 µM
  relative viability: 0.683
NCI-H322M; first compound 0.03162 µM
  relative viability: 0.678
NCI-H322M; first compound 0.3162 µM
  relative viability: 0.748
NCI-H322M; first compound 1 µM
  relative viability: 0.751
NCI-H441; first compound 0.01 µM
  relative viability: 0.279
NCI-H441; first compound 0.03162 µM
  relative viability: 0.255
NCI-H441; first compound 0.1 µM
  relative viability: 0.26
NCI-H441; first compound 0.3162 µM
  relative viability: 0.208
NCI-H441; first compound 1 µM
  relative viability: 0.228
NCI-H460; first compound 0.01 µM
  relative viability: 0.509
NCI-H460; first compound 0.03162 µM
  relative viability: 0.48
NCI-H460; first compound 0.1 µM
  relative viability: 0.499
NCI-H460; first compound 0.3162 µM
  relative viability: 0.472
NCI-H460; first compound 1 µM
  relative viability: 0.51
NCI-H520; first compound 0.01 µM
  relative viability: 0.59
NCI-H520; first compound 0.03162 µM
  relative viability: 0.565
NCI-H520; first compound 0.1 µM
  relative viability: 0.529
NCI-H520; first compound 0.3162 µM
  relative viability: 0.557
NCI-H520; first compound 1 µM
  relative viability: 0.525
NCI-H522; first compound 0.01 µM
  relative viability: 0.709
NCI-H522; first compound 0.03162 µM
  relative viability: 0.662
NCI-H522; first compound 0.1 µM
  relative viability: 0.669
NCI-H522; first compound 0.3162 µM
  relative viability: 0.649
NCI-H522; first compound 1 µM
  relative viability: 0.696
NCI-H596; first compound 0.01 µM
  relative viability: 0.974
NCI-H596; first compound 0.03162 µM
  relative viability: 1.07
NCI-H596; first compound 0.1 µM
  relative viability: 1.09
NCI-H596; first compound 0.3162 µM
  relative viability: 1.03
NCI-H596; first compound 1 µM
  relative viability: 1.05
NCI-H661; first compound 0.01 µM
  relative viability: 0.563
NCI-H661; first compound 0.03162 µM
  relative viability: 0.53
NCI-H661; first compound 0.1 µM
  relative viability: 0.599
NCI-H661; first compound 0.3162 µM
  relative viability: 0.535
NCI-H661; first compound 1 µM
  relative viability: 0.587
NCI-H727; first compound 0.01 µM
  relative viability: 0.749
NCI-H727; first compound 0.03162 µM
  relative viability: 0.914
NCI-H727; first compound 0.1 µM
  relative viability: 0.796
NCI-H727; first compound 0.3162 µM
  relative viability: 0.954
NCI-H727; first compound 1 µM
  relative viability: 0.773
PC-14; first compound 0.01 µM
  relative viability: 0.274
PC-14; first compound 0.03162 µM
  relative viability: 0.272
PC-14; first compound 0.1 µM
  relative viability: 0.191
PC-14; first compound 0.3162 µM
  relative viability: 0.267
PC-14; first compound 1 µM
  relative viability: 0.267
RERF-LC-KJ; first compound 0.01 µM
  relative viability: 0.746
RERF-LC-KJ; first compound 0.03162 µM
  relative viability: 0.697
RERF-LC-KJ; first compound 0.1 µM
  relative viability: 0.778
RERF-LC-KJ; first compound 0.3162 µM
  relative viability: 0.751
RERF-LC-KJ; first compound 1 µM
  relative viability: 0.712
SK-MES-1; first compound 0.01 µM
  relative viability: 0.419
SK-MES-1; first compound 0.03162 µM
  relative viability: 0.43
SK-MES-1; first compound 0.1 µM
  relative viability: 0.366
SK-MES-1; first compound 0.3162 µM
  relative viability: 0.351
SK-MES-1; first compound 1 µM
  relative viability: 0.365
SW 900; first compound 0.03162 µM
  relative viability: 0.435
SW 900; first compound 0.1 µM
  relative viability: 0.471
SW 900; first compound 0.3162 µM
  relative viability: 0.459
SW 900; first compound 1 µM
  relative viability: 0.456
